Data published in patent US4742062A, “Benzylpiperazine compound and pharmaceutical composition as hypolipidemic agent” (Kanebo, Ltd., priority 1985, dated 1988).
Entries after “also recorded” stand apart in the source; their conditions may differ.

Assays:
rats (liver) = assay: Test of hepatic toxicity in rats, weight of liver (Experiment 4); type: in vivo, Wistar male rats; conditions: for Weight of liver, mean ± S.E. / Percentage change of weight of liver: orally, once a day for 7 days; for Percentage change of weight of liver: vs untreated group
Method: Wistar male rats (weighing 100-130 g, one group: […]) were orally administered with a suspension of the test compound in 3 w/v % aqueous gum arabic solution once a day for 7 days. 24 hours after the final administration of the test compound, under light anesthesia with ether, the liver was taken out and the weight thereof was measured.
(§1) From the data thus obtained, a mean value (X) of the weight of liver in the no test compound-administering group and a mean value (Y) of the weight of liver in the test compound-administering group were calculated, and the significant difference between them was tested (t-test). From the resulting data, the percentage change of weight of liver in the test compound-administering group was calculated by the following equation. [formula]

mice (liver) = assay: Test of hepatic toxicity in mice, weight of liver (Experiment 5); type: in vivo, ddY male mice; conditions: for Weight of liver, mean ± S.E. / Percentage change of weight of liver: 7 days; for Percentage change of weight of liver: vs untreated group
Text: ddY male mice (weighing 21-23 g, one group: 10 mice) were fed with a mixture of the test compound with powdery feed CE-2 (manufactured by CLEA JAPAN INC.) for 7 days. When the mice fed with the feed mixed with the test compound (test compound-administering group) and the mice fed with the feed mixed with no test compound (no test compound-administering group) were compared as to the feed uptake amount and body weight, there was observed no difference between two groups. After feeding for 7 days, under light anesthesia with ether, the liver was taken out, and the weight thereof was measured.
as §1

mice = assay: Test of acute toxicity (LD50) in mice (Experiment 6); type: in vivo; conditions: orally, result in words
Text: (§2) ddY male mice (weighing 20-25 g, one group: 5 mice) were orally administered with a suspension of the test compound in 3 w/v % aqueous gum arabic solution.

[1] = as above; type: in vivo; conditions: mouse, in vivo, po, orally, 7 days observation, Weil method
Text: as §2

[2] = tested on: hypercholesterolemic mice (plasma cholesterol); assay: Blood cholesterol lowering activity in hypercholesterolemic mice (Experiment 3); type: in vivo, ddY male mice; conditions: for Plasma cholesterol level, mean ± S.E. / Percentage change of plasma cholesterol: orally, three times; for Percentage change of plasma cholesterol: vs untreated group
Text: (2) Test method: It was done by a method similar to that described in H. Ozawa, Screening of Pharmaceutical Activities for Development of New Drugs - Recent Movement and Practice, Vol. 1, 84-86, 1984 issued by […] Shoin (Tokyo). ddY male mice (weighing 10 - 12 g, one group: 10 mice) were fed with hypercholesterol feed [prepared by mixing CE-2 Feed (manufactured by CLEA JAPAN INC.) with cholesterol 1 w/w %, cholic acid 0.5 w/w % and sucrose 10 w/w %]. After 7 days from the starting of feeding with the hypercholesterol feed, and thereafter 6 hours and further 24 hours (totally three times), a suspension of the test compound in 3 w/v % aqueous gum arabic solution was orally administered. 3 hours after the final administration of the test compound, blood was collected from orbital vessel with hematocrit capillary (manufactured by TERUMO Corporation, treated with heparin). The blood was centrifuged at 10,000 r.p.m. for 2 minutes to collect blood plasma. The plasma cholesterol was measured in the same manner as described in Experiment 1. From the data thus obtained, a mean value (X) of the plasma cholesterol level in the no test compound-administering group and a mean value (Y) of the plasma cholesterol level in the test compound-administering group were calculated, and the significant difference between them was tested (t-test). From the resulting data, the percentage change of plasma cholesterol in the test compound-administering group was calculated by the following equation. [formula]

[3] = tested on: mice fed with normal feed (serum cholesterol); assay: Blood cholesterol lowering activity in mice fed with normal feed (Experiment 2); type: in vivo, ddY male mice; conditions: for Serum cholesterol level, mean ± S.E. / Percentage change of serum cholesterol: 7 days; for Percentage change of serum cholesterol: vs untreated group
Text: (2) Test method: It was done by a method similar to that of H. B. Right et al. (cf. H. B. Right et al., J. Med. Chem., Vol. 7, 113-115, 1964). ddY male mice (weighing 21-23 g, one group: 10 mice) were fed with a mixture of the test compound with powdery feed CE-2 (manufactured by CLEA JAPAN INC.) for 7 days. When the mice fed with the feed mixed with the test compound (test compound-administering group) and the mice fed with the feed mixed with no test compound (no test compound-administering group) were compared as to the feed uptake amount and body weight, there was observed no difference between two groups. After feeding for 7 days, under light anesthesia with ether, the femoral artery and vein were cut and blood was collected therefrom. The blood was centrifuged at 3,000 r.p.m. for 10 minutes to collect serum. The serum cholesterol was measured in the same manner as described in Experiment 1. From the data thus obtained, a mean value (X) of the serum cholesterol level in the no test compound-administering group and a mean value (Y) of the serum cholesterol level in the test compound-administering group were calculated, and the significant difference between them was tested (t-test). From the resulting data, the percentage change of serum cholesterol in the test compound-administering group was calculated by the following equation. [formula]

[4] = tested on: rats fed with normal feed (serum cholesterol); assay: Blood cholesterol lowering activity in rats fed with normal feed (Experiment 1); type: in vivo, Wistar male rats; conditions: for Serum cholesterol level, mean ± S.E. / Percentage change of serum cholesterol: once a day for 7 days; for Percentage change of serum cholesterol: vs untreated group
Method: It was done by a method similar to that of A. V. Ginocchio et al. (cf. A. V. Ginocchio et al., Arzneim.Forsch./Drug Res., Vol. 30, 2032-2034, 1980).
Wistar male rats (weighing 100-130 g, one group: 6 rats) were administered with a suspension of the test compound in 3 w/v % aqueous gum arabic solution once a day for 7 days. 24 hours after the final administration of the test compound, under light anesthesia with ether, the femoral artery and vein were cut and blood was collected therefrom. The blood was centrifuged at 3,000 r.p.m. for 10 minutes to collect serum. The serum cholesterol was measured by an enzymatic method using an agent for measuring total cholesterol (Determiner® TC "5", manufactured by Kyowa Medex Co., Ltd.) (cf. Charles C. Allain et al., Clin. Chem., Vol. 20, 470-475, 1974).
From the data thus obtained, a mean value (X) of the serum cholesterol level in the group to which no test compound was administered and a mean value (Y) of the serum cholesterol level in the group to which the test compound was administered were calculated, and the significant difference between them was tested (t-test). From the resulting data, the percentage change of serum cholesterol in the test compound-administering group was calculated by the following equation. [formula]

cholesterol = conditions: clinical use; J. K. Reddy et al., Nature, Vol. 283, 397-398, 1980; cited from earlier work
[5] = result in words, dihydrochloride
[6] = conc. of test compd. in feeds 0.0125%
[7] = conc. of test compd. in feeds 0.025%
[8] = conc. of test compd. in feeds 0.05%, ** p < 0.01 (reference compound)
[9] = conc. of test compd. in feeds 0.05%
[10] = conc. of test compd. in feeds 0.1%, * p < 0.05 (reference compound)
[11] = conc. of test compd. in feeds 0.1%
[12] = dose per once 50 mg/kg, ** p < 0.01
[13] = dose per once 100 mg/kg, *** p < 0.001 (compound of this invention)
[14] = conc. of test compd. in feeds 0.025%, *** p < 0.001
[15] = conc. of test compd. in feeds 0.05%, *** p < 0.001
[16] = conc. of test compd. in feeds 0.1%, *** p < 0.001
[17] = normal feed, result in words, dihydrochloride

SMILES: Cl.Cl.Clc1ccc(CN2CCN(CC=Cc3ccc(Cl)cc3Cl)CC2)cc1 [Compound of this invention, 1-(4-Chlorobenzyl)-4-(2,4-dichlorocinnamyl)-piperazine dihydrochloride]
- Weight of liver, mean ± S.E. (rats (liver); dose per once 12.5 mg/kg): 4.77 ± 0.07 g/100 g of body weight
- Percentage change of weight of liver (rats (liver); dose per once 12.5 mg/kg): -2.9%
- Weight of liver, mean ± S.E. (rats (liver); dose per once 25 mg/kg): 4.93 ± 0.10 g/100 g of body weight
- Percentage change of weight of liver (rats (liver); dose per once 25 mg/kg): +0.4%
- Weight of liver, mean ± S.E. (rats (liver); dose per once 50 mg/kg): 5.05 ± 0.08 g/100 g of body weight
- Percentage change of weight of liver (rats (liver); dose per once 50 mg/kg): +2.9%
- Weight of liver, mean ± S.E. (rats (liver); dose per once 100 mg/kg): 5.17 ± 0.07 g/100 g of body weight
- Percentage change of weight of liver (rats (liver); dose per once 100 mg/kg): +5.3%
- change in the weight of liver (hepatic toxicity) (rats (liver); [5]): did not give any significant change in the weight of liver; also recorded: did not give any effect on the weight of liver
- Weight of liver, mean ± S.E. (mice (liver); [6]): 6.80 ± 0.22 g/100 g of body weight
- Percentage change of weight of liver (mice (liver); [6]): +7.1%
- Weight of liver, mean ± S.E. (mice (liver); [7]): 6.63 ± 0.22 g/100 g of body weight
- Percentage change of weight of liver (mice (liver); [7]): +4.4%
- Weight of liver, mean ± S.E. (mice (liver); [8]): 6.86 ± 0.30 g/100 g of body weight
- Percentage change of weight of liver (mice (liver); [9]): +8.0%
- Weight of liver, mean ± S.E. (mice (liver); [10]): 6.43 ± 0.42 g/100 g of body weight
- Percentage change of weight of liver (mice (liver); [11]): +1.3%
- change in the weight of liver (hepatic toxicity) (mice (liver); [5]): did not give any significant change in the weight of liver; also recorded: did not give any effect on the weight of liver
- acute toxicity (mice): low acute toxicity
- LD50 at 168 h [1]: 996 mg/kg
- Plasma cholesterol level, mean ± S.E. ([2]; dose per once 25 mg/kg, ** p < 0.01): 313.1 ± 26.0 mg/dL
- Percentage change of plasma cholesterol ([2]; dose per once 25 mg/kg): -29.8%
- Plasma cholesterol level, mean ± S.E. [2, 12]: 314.5 ± 16.3 mg/dL
- Percentage change of plasma cholesterol ([2]; dose per once 50 mg/kg): -29.5%
- Plasma cholesterol level, mean ± S.E. [2, 13]: 256.0 ± 19.4 mg/dL
- Percentage change of plasma cholesterol ([2]; dose per once 100 mg/kg): -42.6%
- plasma cholesterol lowering activity in comparison with probucol [2, 5]: more potent plasma cholesterol lowering activity in comparison with the known probucol; also recorded: higher activities than those of probucol in all experiments
- Serum cholesterol level, mean ± S.E. ([3]; conc. of test compd. in feeds 0.0125%, * p < 0.05): 130.7 ± 6.5 mg/dL
- Percentage change of serum cholesterol [3, 6]: -13.0%
- Serum cholesterol level, mean ± S.E. [3, 14]: 121.0 ± 3.7 mg/dL
- Percentage change of serum cholesterol [3, 7]: -19.4%
- Serum cholesterol level, mean ± S.E. [3, 15]: 62.9 ± 6.4 mg/dL
- Percentage change of serum cholesterol [3, 9]: -58.1%
- Serum cholesterol level, mean ± S.E. [3, 16]: 31.7 ± 3.7 mg/dL
- Percentage change of serum cholesterol [3, 11]: -78.9%
- serum cholesterol lowering activity in comparison with probucol [3, 17]: more potent serum cholesterol lowering activity in comparison with the known probucol; also recorded: higher activities than those of probucol in all experiments
- Serum cholesterol level, mean ± S.E. ([4]; dose per once 12.5 mg/kg): 67.1 ± 2.1 mg/dL
- Percentage change of serum cholesterol ([4]; dose per once 12.5 mg/kg): -5.4%
- Serum cholesterol level, mean ± S.E. ([4]; dose per once 25 mg/kg, *** p < 0.001): 62.8 ± 0.8 mg/dL
- Percentage change of serum cholesterol ([4]; dose per once 25 mg/kg): -11.4%
- Serum cholesterol level, mean ± S.E. [4, 12]: 64.4 ± 1.6 mg/dL
- Percentage change of serum cholesterol ([4]; dose per once 50 mg/kg): -9.2%
- Serum cholesterol level, mean ± S.E. [4, 13]: 44.6 ± 2.1 mg/dL
- Percentage change of serum cholesterol ([4]; dose per once 100 mg/kg): -37.1%
- serum cholesterol lowering activity in comparison with probucol [4, 17]: higher activities than those of probucol in all experiments; also recorded: more potent serum cholesterol lowering activity in comparison with the known probucol

SMILES: CC(C)(Sc1cc(C(C)(C)C)c(O)c(C(C)(C)C)c1)Sc1cc(C(C)(C)C)c(O)c(C(C)(C)C)c1 [Reference compound, reference compound]
- Weight of liver, mean ± S.E. (rats (liver); dose per once 100 mg/kg): 4.68 ± 0.09 g/100 g of body weight
- Percentage change of weight of liver (rats (liver); dose per once 100 mg/kg): -4.7%
- Weight of liver, mean ± S.E. (mice (liver); [7]): 6.66 ± 0.22 g/100 g of body weight
- Percentage change of weight of liver (mice (liver); [7]): +4.9%
- Weight of liver, mean ± S.E. (mice (liver); [8]): 7.11 ± 0.13 g/100 g of body weight
- Percentage change of weight of liver (mice (liver); [9]): +12.0%
- Weight of liver, mean ± S.E. (mice (liver); [10]): 7.03 ± 0.09 g/100 g of body weight
- Percentage change of weight of liver (mice (liver); [11]): +10.7%
- LD50 at 168 h [1]: > 5000 mg/kg
- Plasma cholesterol level, mean ± S.E. [2, 13]: 386.2 ± 10.5 mg/dL
- Percentage change of plasma cholesterol ([2]; dose per once 100 mg/kg): -13.4%
- Serum cholesterol level, mean ± S.E. [3, 14]: 121.7 ± 3.1 mg/dL
- Percentage change of serum cholesterol [3, 7]: -19.0%
- Serum cholesterol level, mean ± S.E. [3, 15]: 104.8 ± 4.4 mg/dL
- Percentage change of serum cholesterol [3, 9]: -30.2%
- Serum cholesterol level, mean ± S.E. [3, 16]: 84.4 ± 5.4 mg/dL
- Percentage change of serum cholesterol [3, 11]: -43.8%
- Serum cholesterol level, mean ± S.E. [4, 13]: 70.8 ± 2.0 mg/dL
- Percentage change of serum cholesterol ([4]; dose per once 100 mg/kg): -0.1%

SMILES: CCOC(=O)C(C)(C)Oc1ccc(Cl)cc1 [clofibrate, ethyl p-chlorophenoxyisobutyrate]
- side effect (cholesterol): hepatic toxicity
